Test results from ChEMBL document CHEMBL1131968, “P'-extended alpha-ketoamide inhibitors of proteasome” (Bioorg Med Chem Lett, 1999).

What follows are compounds tested on Proteasome (assay: Inhibitory activity against proteasome at 1 uM concentration).
Format: subcellular

Row | Structure (SMILES) | inhibition
1 | N/C(=N/CCCC(NC(=O)OCc1ccccc1)C(=O)N[C@@H](Cc1ccccc1)C(=O)C(=O)NCCNS(=O)(=O)c1ccccc1)N[N+](=O)[O-] (stereo partly drawn) | 34%

Each compound was assayed on Proteasome (assay: Inhibitory activity against proteasome at 100 nM concentration).
Format: subcellular

Row | inhibition | Structure (SMILES)
2 | 31% | N=C(N)NCCC[C@H](NC(=O)C(CCCCCCCCN1C(=O)c2ccccc2C1=O)C1CCCC1)C(=O)N[C@@H](Cc1ccccc1)C(=O)C(=O)NCCNS(=O)(=O)c1ccccc1 (stereo partly drawn)
3 | 48% | CC(C)(C)OC(=O)NCCCC[C@H](NC(=O)C(CCCCCCCCN1C(=O)c2ccccc2C1=O)C1CCCC1)C(=O)N[C@@H](Cc1ccccc1)C(=O)C(=O)NCCNS(=O)(=O)c1ccccc1 (stereo partly drawn)
4 | 34% | CC(C)(C)OC(=O)/N=C(\NCCC[C@H](NC(=O)C(CCCCCCCCN1C(=O)c2ccccc2C1=O)C1CCCC1)C(=O)N[C@@H](Cc1ccccc1)C(=O)C(=O)NCCNS(=O)(=O)c1ccccc1)NC(=O)OC(C)(C)C (stereo partly drawn)

These compounds were tested against Proteasome (assay: Inhibitory activity against proteasome).
Format: subcellular

Row | Structure (SMILES) | Ki
5 | O=C(NCCNS(=O)(=O)c1ccccc1)C(=O)[C@H](Cc1ccccc1)NC(=O)[C@H](CCCCNC(=O)c1cnccn1)NC(=O)C(CCCCCCCCN1C(=O)c2ccccc2C1=O)C1CCCC1 (stereo partly drawn) | 80 nM
6 | NCCNC(=O)C(=O)[C@H](Cc1ccccc1)NC(=O)[C@H](CCC/N=C(\N)N[N+](=O)[O-])NC(=O)C(CCCCCCCCN1C(=O)c2ccccc2C1=O)C1CCCC1 (stereo partly drawn) | 67 nM
7 | CCNC(=O)C(=O)[C@H](Cc1ccccc1)NC(=O)[C@H](CCC/N=C(\N)N[N+](=O)[O-])NC(=O)C(CCCCCCCCN1C(=O)c2ccccc2C1=O)C1CCCC1 (stereo partly drawn) | 12 nM
8 | CC(C)(C)OC(=O)NCCNC(=O)C(=O)[C@H](Cc1ccccc1)NC(=O)[C@H](CCC/N=C(\N)N[N+](=O)[O-])NC(=O)C(CCCCCCCCN1C(=O)c2ccccc2C1=O)C1CCCC1 (stereo partly drawn) | 2.2 nM
9 | CS(=O)(=O)NCCCC[C@H](NC(=O)C(CCCCCCCCN1C(=O)c2ccccc2C1=O)C1CCCC1)C(=O)N[C@@H](Cc1ccccc1)C(=O)C(=O)NCCNS(=O)(=O)c1ccccc1 (stereo partly drawn) | 41 nM
10 | NCCCC[C@H](NC(=O)C(CCCCCCCCN1C(=O)c2ccccc2C1=O)C1CCCC1)C(=O)N[C@@H](Cc1ccccc1)C(=O)C(=O)NCCNS(=O)(=O)c1ccccc1 (stereo partly drawn) | 22 nM
11 | N/C(=N\CCC[C@H](NC(=O)C(CCCCCCCCN1C(=O)c2ccccc2C1=O)C1CCCC1)C(=O)N[C@@H](Cc1ccccc1)C(=O)C(=O)NCCNS(=O)(=O)c1ccccc1)N[N+](=O)[O-] (stereo partly drawn) | 1.1 nM

What follows are compounds tested on Proteasome (assay: Inhibitory activity against proteasome at 10 uM concentration).
Format: subcellular

Row | inhibition | Structure (SMILES)
12 | 12% | N[C@@H](Cc1ccccc1)C(=O)C(=O)NCCNS(=O)(=O)c1ccccc1
13 | 14% | CC(C)(C)OC(=O)N[C@@H](Cc1ccccc1)C(=O)C(=O)NCCNS(=O)(=O)c1ccccc1
